Reference: patent US5502065A, “Indole derivatives as 5-HT1 -like agonists” (Pfizer Inc., priority 1992, dated 1996)
Where two headings read alike, the source gives them in different places.

What was measured:
"5-HT1 -like" receptor [1] = target: T1, "5-HT1 -like" receptor (Canis lupus familiaris, UniProt P79250); test: contraction of dog isolated saphenous vein strip ("5-HT1 -like" receptor agonist activity); details: for Emax: read-out: […] RELATIVE TO 5-HT RESPONSE, relative to 5-HT response, read-out: PERCENTAGE AGONISM RELATIVE TO 5-HT RESPONSE
T1 construct: dog isolated saphenous vein strip; from tissue; host or cells: dog isolated saphenous vein strip
Protocol: The in vitro evaluation of the "5-HT1 -like" receptor agonist activity of the compounds of the formula (I) is carried out by testing the extent to which they mimic sumatriptan in contracting the dog isolated saphenous vein strip (P. P. A. Humphrey et al., .Br. J. Pharmacol., 94, 1123 (1988)).
The in vitro evaluation of the "5-HT1 -like" receptor agonist activity of the compounds of the invention is carried out by testing the extent to which they mimic sumatriptan in contracting the isolated dog saphenous vein strip (P. P. A. Humphrey et al., Brit. J. Pharmacol., 1988, 94, 1123).
EC50 represents the concentration of compound which causes 50% of the maximum contraction effected by it.

"5-HT1 -like" receptor [2] = target: T1, "5-HT1 -like" receptor; details: dog isolated saphenous vein strip; cited from earlier work
carotid vascular bed = details: anaesthetized dog, cited from earlier work
[3] = dog isolated saphenous vein strip

T1 sequence (P79250 whole entry): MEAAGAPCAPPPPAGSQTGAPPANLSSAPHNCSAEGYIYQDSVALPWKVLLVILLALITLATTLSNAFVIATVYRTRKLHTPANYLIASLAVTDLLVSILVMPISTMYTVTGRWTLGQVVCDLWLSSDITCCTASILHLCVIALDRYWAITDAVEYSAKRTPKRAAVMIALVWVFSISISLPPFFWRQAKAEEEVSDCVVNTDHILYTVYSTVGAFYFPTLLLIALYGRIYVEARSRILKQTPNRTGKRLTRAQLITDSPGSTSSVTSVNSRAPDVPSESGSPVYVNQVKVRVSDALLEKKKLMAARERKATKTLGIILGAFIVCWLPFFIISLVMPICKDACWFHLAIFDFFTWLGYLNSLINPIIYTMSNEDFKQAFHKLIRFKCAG

## CN1CCC[C@@H]1Cc1c[nH]c2ccc(-c3cccc(S(N)(=O)=O)c3)cc12 [Example 3]
"5-HT1 -like" receptor [1]
  EC50: 3.78 nM
"5-HT1 -like" receptor [1]; [3]
  Emax: 85%

## CN1CCC[C@@H]1Cc1c[nH]c2ccc(-c3ccc(C(N)=O)s3)cc12 [Example 64, 5-(5-Carbamoyl-2-thienyl)-3-(1-methylpyrrolidin-2(R)-ylmethyl)-1H-indole]
"5-HT1 -like" receptor [1]
  EC50: 25 nM
"5-HT1 -like" receptor [1]; [3]
  Emax: 79%

## OCc1ccc(-c2ccc3[nH]cc(C[C@H]4CCCN4)c3c2)cc1 [Example 37, 5-(4-Hydroxymethylphenyl)-3-(pyrrolidin-2(R)-ylmethyl)-1H-indole]
"5-HT1 -like" receptor [1]
  EC50: 76 nM
"5-HT1 -like" receptor [1]; [3]
  Emax: 72%

## CSc1ccc2c(c1)C(N1CCN(C)CC1)Cc1ccccc1S2 (centres unmarked) [methiothepin]
"5-HT1 -like" receptor [2]
  block of saphenous vein contraction (5-HT antagonism): can be blocked

## CN1CCC[C@@H]1Cc1c[nH]c2ccc(-c3cncc(C#N)c3)cc12 [Example 53]
"5-HT1 -like" receptor [1]
  EC50: 26 nM
"5-HT1 -like" receptor [1]; [3]
  Emax: 75%

## CN1CCC[C@@H]1Cc1c[nH]c2ccc(-c3ccc(CO)o3)cc12 [Example 66, 5-(5-Hydroxymethyl-2-furyl)-3-(1-methylpyrrolidin-2(R)-ylmethyl)-1H -indole]
"5-HT1 -like" receptor [1]
  EC50: 19 nM
"5-HT1 -like" receptor [1]; [3]
  Emax: 80%

## CNS(=O)(=O)Cc1ccc2[nH]cc(CCN(C)C)c2c1 [Sumatriptan]
Carotid vascular bed
  carotid vascular resistance: selective increase
Carotid vascular bed; consequent on increased carotid vascular resistance
  carotid arterial blood flow: decrease

## CN(C)C(=O)CCN1CCC[C@@H]1Cc1c[nH]c2ccc(-c3cccc(C(=O)N(C)C)c3)cc12 [Example 46, 3-1-(2-N,N-dimethylcarbamoylethyl)pyrrolidin-2(R)-ylmethyl!5-(3-N,N-dimethylcarbamoylphenyl)-1H-indole]
"5-HT1 -like" receptor [1]; dog isolated saphenous vein strip, concentration of compound which causes 50% of the maximum contraction effected by it, read-out: EC50
  EC50: 160 nM
"5-HT1 -like" receptor [1]; [3]
  Emax: 78%

## c1ncc(-c2ccc3[nH]cc(C[C@H]4CCCN4CC4CC4)c3c2)cn1 [Example 60, 3-(1-Cyclopropylmethylpyrrolidin-2(R)-ylmethyl)-5-(5-pyrimidinyl)-1H-indole]
"5-HT1 -like" receptor [1]
  EC50: 9.2 nM
"5-HT1 -like" receptor [1]; [3]
  Emax: 105%
